Test results from PMC7291367, “Insightful Backbone Modifications Preventing Proteolytic Degradation of Neurotensin Analogs Improve NTS1-Induced Protective Hypothermia” (Frontiers in Chemistry, 2020).
“Also recorded” adds a separate entry of the source. Where two headings read alike, the source gives them in different places. Numbered stars: 1 amine (or outer) side, 2 acyl side, 3 side chain; on linkers, the order of the positions; unused ones are H or OH. Square brackets hold non-standard residues; d marks the D form. Peptide text beside a SMILES is read from it. X1 = NCCCC[C@H](N)CN([C@@H](CCCCN)C(=O)[*:2])[*:1]; Ala(SiMe3) = C[Si](C)(C)C[C@H](N)C(=O)O; Dmt = Cc1cc(O)cc(C)c1C[C@H](N)C(=O)O; Tle = CC(C)(C)[C@H](N)C(=O)O

Tests used:
[1] = Plasma stability assay (UPLC/MS); format: in vitro ADME; details: 37°C; for half-life at 0.156 mM: rat
Protocol: Rat plasma was obtained from blood by keeping the translucent phase after centrifugation at 15,000 g over 5 min. Plasma stability assay was carried out by incubating each compound at different incubation times in rat plasma at a final concentration of 0.156 mM. […] Then, 70 μl of a solution containing 10% trichloroacetic acid (TCA) and 0.5% nicotinamine, an internal standard, was added to stop the degradation by proteases. After centrifugation at 15,000 g for 30 min, supernatant was filtered through 0.22-μm filter and analyzed by UPLC/MS (Water H Class Acquity UPLC, mounted with Acquity UPLC BEH C18 column, 1.7 μm, 2.1 × 50 mm and paired to a SQ Detector 2). Compounds 1, 2, and 5 were analyzed using the mass or UV spectrum. Quantification was done by determining the area under the curve (AUC) ratio of each compound over AUC of nicotinamine for each incubation time. Data were plotted into GraphPad Prism 8 and the half-life of each compound was calculated using one-phase decay fit and represented the mean ± SEM of minimum three separate experiments.

Sprague-Dawley rats = assay: Body temperature measurement after intrathecal injection; format: in vivo; details: rat; for effect on body temperature: compared to the saline-treated group; for Hypothermia ΔTemp: 30 μg/kg, i.t., change in body temperature from baseline at 60 min
Text: The experimental procedures in this study were approved by the Animal Care Committee of the Université de Sherbrooke (protocol n°035-18B) and were in accordance with policies and directives of the Canadian Council on Animal Care. Adult male Sprague-Dawley rats, weighing 175–225 g (Charles River laboratories, St-Constant, Québec, Canada), were maintained on a 12-h light/dark cycle with free access to food and water and were housed two per cage on Aspen shavings in a quiet room.
Rats were lightly anesthetized with isoflurane/oxygen (Baxter corporation, Mississauga, ON, Canada; 2 L/min) flow and 25 μl of each compound were injected intrathecally with a 27-G 1/2 needle (BD PrecisionGlide, USA) into the subarachnoid space between vertebrae L5 and L6. Analogs 1–14 were diluted in physiological saline at 5 mg/ml, whereas compounds 15 and 16 were diluted in DMSO. For body temperature measurement, the injected solution of these both compounds contained 6% DMSO at final concentration (30 μg/kg).
Three consecutive days prior to testing, animals were individually acclimatized to manipulations and to a thermistor probe 5 min per day. The day of the test, experiments were always performed in a quiet room and between 8:00 and 12:00 PM. to reduce any variation related to the circadian rhythm. Body temperature was measured using a thermistor probe inserted into the rectum of adult Sprague-Dawley rats. Temperatures were recorded immediately before (baseline) and each 10 min for up to 60 min following intrathecal administration of saline, vehicle (6% DMSO) or NT analogs at 30 μg/kg. Changes in body temperature (Δ body temp) from baseline were determined for each animal. Data are expressed as mean ± SEM of 5 to 20 animals per condition.
Data are expressed as mean ± standard errors of the mean (SEM). All graphs and statistical analysis were performed using GraphPad Prism 8 (GraphPad software, La Jolla, CA, USA). A two-way ANOVA followed by Bonferroni's multiple comparisons test was used to determine significant differences between drug- and vehicle-treated rats at different timepoints post-injection.

hNTS1 [2] = target: T1, hNTS1 (Homo sapiens, UniProt P30989); assay: Competitive radioligand binding assay, 125I-[Tyr3]-NT displacement, CHO-K1 cell membranes
Protocol: (§1) All media and additives are from Wisent (St-Bruno, QC). […] After 1 h of incubation at room temperature, the binding reaction mixture was transferred in polyethylenimine-coated 96-well-filter plates (Millipore, Billerica, MA). Reaction was terminated by filtration, and plates were washed three times with 200 μl of ice-cold binding buffer. […] Data were plotted using GraphPad Prism 8 using the One-site—Fit log (IC50) and represent the mean ± SEM of at least three separate experiments performed in triplicate.

hNTS2 [3] = target: T2, hNTS2 (Homo sapiens, UniProt O95665); assay: Competitive radioligand binding assay, 125I-[Tyr3]-NT displacement, 1321N1 cell membranes; details: for NTS1/NTS2 selectivity: ratio of Ki hNTS1 to Ki hNTS2
Protocol: as §1

hNTS2 [4] = target: T2, hNTS2; details: Ki values taken from the literature (Figure 1 legend) ref Fanelli et al., 2015; Eiselt et al., 2019; read-out: Binding, Ki hNTS2; cited from earlier work
hNTS1 [5] = target: T1, hNTS1; details: Ki values taken from the literature (Figure 1 legend) ref Fanelli et al., 2015; Eiselt et al., 2019; read-out: Binding, Ki hNTS1; cited from earlier work

T1 sequence (P30989 whole entry): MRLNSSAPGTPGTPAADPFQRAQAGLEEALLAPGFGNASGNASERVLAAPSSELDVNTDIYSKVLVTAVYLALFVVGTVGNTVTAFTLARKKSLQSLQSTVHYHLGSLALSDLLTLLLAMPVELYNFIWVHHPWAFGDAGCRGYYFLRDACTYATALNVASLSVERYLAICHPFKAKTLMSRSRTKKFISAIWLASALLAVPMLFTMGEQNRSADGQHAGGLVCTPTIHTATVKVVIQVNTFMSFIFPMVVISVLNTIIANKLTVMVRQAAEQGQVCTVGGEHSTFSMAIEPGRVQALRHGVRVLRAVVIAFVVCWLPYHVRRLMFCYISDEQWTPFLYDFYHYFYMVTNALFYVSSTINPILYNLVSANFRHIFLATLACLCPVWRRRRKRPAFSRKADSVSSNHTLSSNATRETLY
T2 sequence (O95665 whole entry): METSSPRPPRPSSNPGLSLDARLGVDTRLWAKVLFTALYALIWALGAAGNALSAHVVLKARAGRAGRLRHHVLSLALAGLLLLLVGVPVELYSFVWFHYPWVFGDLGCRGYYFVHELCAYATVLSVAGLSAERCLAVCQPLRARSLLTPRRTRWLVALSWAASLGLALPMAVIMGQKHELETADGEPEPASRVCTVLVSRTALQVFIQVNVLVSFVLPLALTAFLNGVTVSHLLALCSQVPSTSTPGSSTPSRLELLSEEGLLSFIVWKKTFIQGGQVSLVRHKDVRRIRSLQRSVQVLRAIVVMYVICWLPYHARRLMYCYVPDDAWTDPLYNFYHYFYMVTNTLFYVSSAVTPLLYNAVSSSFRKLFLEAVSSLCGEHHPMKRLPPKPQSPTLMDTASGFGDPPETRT

**Q.** For `CC[C@H](C)[C@H](NC(=O)[C@H](CCCCN)NC(=O)[C@@H]1CCCN1C(=O)[C@H](CCCCN)NC[C@@H](N)CCCCN)C(=O)N[C@@H](CC(C)C)C(=O)O` [Compound 10, H-LysΨ[CH2NH]Lys-Pro-Lys-Ile-Leu-OH] (H-[X1]PKIL-OH), which half-life at 0.156 mM ([1]; plasma, incubation up to 24 h) is on record?
**A.** The half-life at 0.156 mM was 300 ± 12 min.

**Q.** Which “effect on body temperature” value (Sprague-Dawley rats; 30 μg/kg i.t.) does the source give for `CC[C@H](C)[C@H](NC(=O)[C@H](CCCCN)NC(=O)[C@@H]1CCCN1C(=O)[C@H](CCCCN)NC(=O)[C@@H](N)CCCCN)C(=O)N[C@@H](C[Si](C)(C)C)C(=O)O` [Compound 11, H-Lys-Lys-Pro-Lys-Ile-TMSAla-OH] (H-KKPKI[Ala(SiMe3)]-OH) here?
**A.** Its value is “did not induce hypothermia; also recorded: did not cause drop in body temperature”.

**Q.** And the “Hypothermia ΔTemp” value (Sprague-Dawley rats)?
**A.** Its value is 0.04 ± 0.2 °C.

**Q.** What about the Ki (hNTS1 [2]) of the same compound?
**A.** Its Ki is 710 ± 100 nM.

**Q.** And the “fold increase in affinity toward NTS1” value (hNTS1 [2]; compared to 9)?
**A.** The value was 10 fold.

**Q.** What about the Ki (hNTS2 [3]) of the same compound?
**A.** Its Ki is 76 ± 20 nM.

**Q.** And the “fold increase in affinity toward NTS2” value (hNTS2 [3]; compared to 9)?
**A.** The value was 4 fold.

**Q.** What about the NTS1/NTS2 selectivity (hNTS2 [3]) of the same compound?
**A.** Its NTS1/NTS2 selectivity is 9.3.

**Q.** What does the source list for `CC[C@H](C)[C@H](NC(=O)[C@@H](Cc1c[nH]c2ccccc12)NC(=O)[C@@H]1CCCN1C(=O)[C@H](CCCCN)NC(=O)[C@@H](N)CCCCN)C(=O)N[C@@H](C[Si](C)(C)C)C(=O)O` [Compound 13, H-Lys-Lys-Pro-D-Trp-Ile-TMSAla-OH] (H-KKP[dW]I[Ala(SiMe3)]-OH)?
**A.** Plasma stability (Half-life) ([1]; rat plasma, 0.156 mM, short incubation times): 10 ± 2 min; half-life at 0.156 mM ([1]; plasma, short incubation times): < 10 min; Ki (hNTS2 [3]): 8.5 ± 2 nM; selectivity toward NTS2 (hNTS2 [3]; NTS2 over NTS1, text): > 420 fold; NTS1/NTS2 selectivity (hNTS2 [3]): 423

**Q.** For `CC[C@H](C)[C@H](NC(=O)[C@@H](Cc1c[nH]c2ccccc12)NC(=O)[C@@H]1CCCN1C(=O)[C@H](CCCCN)NC[C@@H](N)CCCCN)C(=O)N[C@@H](C[Si](C)(C)C)C(=O)O` [Compound 14, H-Lysψ[CH2NH]Lys-Pro-D-Trp-Ile-TMSAla-OH] (H-[X1]P[dW]I[Ala(SiMe3)]-OH), which half-life at 0.156 mM ([1]; plasma, incubation up to 24 h) is on record?
**A.** Its half-life at 0.156 mM is over 1200 min.

**Q.** What about the “effect on body temperature” value (Sprague-Dawley rats; 30 μg/kg i.t.) of the same compound?
**A.** The value was “long-lasting hypothermia”.

**Q.** And the “Hypothermia ΔTemp” value (Sprague-Dawley rats)?
**A.** Its value is −1.8 ± 0.2 °C.

**Q.** What about the temperature drop (Sprague-Dawley rats; for up to 60 min, 30 μg/kg i.t.) of the same compound?
**A.** Its temperature drop is “more than 2 °C”.

**Q.** And the Ki (hNTS1 [2])?
**A.** Its Ki is 55 ± 3 nM.

**Q.** And the “fold increase in binding to NTS1” value (hNTS1 [2]; compared to 13 (addition of reduced amine bond))?
**A.** The value was 65 fold.

**Q.** And the Ki (hNTS2 [3])?
**A.** The Ki was 3.5 ± 0.6 nM.

**Q.** And the NTS1/NTS2 selectivity (hNTS2 [3])?
**A.** Its NTS1/NTS2 selectivity is 16.

**Q.** Which “effect on body temperature” value (Sprague-Dawley rats; 30 μg/kg i.t.) does the source give for `Cc1cc(O)cc(C)c1C[C@H](NC(=O)[C@@H]1CCCN1C(=O)[C@H](CCCCN)NC(=O)[C@@H](N)CCCCN)C(=O)N[C@H](C(=O)N[C@@H](CC(C)C)C(=O)O)C(C)(C)C` [Compound 15, H-Lys-Lys-Pro-Dmt-Tle-Leu-OH] (H-KKP[Dmt][Tle]L-OH) here?
**A.** Its value is “not effective in reducing the body temperature; also recorded: not effective to induce drop in body temperature”.

**Q.** What about the “Hypothermia ΔTemp” value (Sprague-Dawley rats) of the same compound?
**A.** Its value is 0.14 ± 0.2 °C.

**Q.** And the NTS1/NTS2 selectivity (hNTS2 [3])?
**A.** Its NTS1/NTS2 selectivity is 24.

**Q.** What about the Ki (hNTS2 [4]) of the same compound?
**A.** The Ki was 2.4 ± 1 nM.

**Q.** What about the Ki (hNTS1 [5]) of the same compound?
**A.** Its Ki is 57 ± 6 nM.

**Q.** Which half-life at 0.156 mM ([1]; short incubation times) does the source give for `CC[C@H](C)[C@H](NC(=O)[C@H](Cc1ccc(O)cc1)NC(=O)[C@@H]1CCCN1C(=O)[C@H](CCCNC(=N)N)NC(=O)[C@@H](N)CCCNC(=N)N)C(=O)N[C@@H](CC(C)C)C(=O)O` [NT(8-13), H-Arg-Arg-Pro-Tyr-Ile-Leu-OH, reference compound] here?
**A.** Its half-life at 0.156 mM is 1 ± 0.1 min.

**Q.** With “H-KKPKIL-OH [Compound 9, H-Lys-Lys-Pro-Lys-Ile-Leu-OH]” as the compound, how does the “effect on body temperature” value (Sprague-Dawley rats; 30 μg/kg i.t.) read?
**A.** Its value is “did not induce hypothermia; also recorded: did not cause drop in body temperature”.

**Q.** And the “Hypothermia ΔTemp” value (Sprague-Dawley rats)?
**A.** The value was 0.32 ± 0.2 °C.

**Q.** And the “fold decrease in NTS1 binding affinity” value (hNTS1 [2]; compared to NT(8-13))?
**A.** Its value is “more than 5,000 fold”.

**Q.** And the “fold decrease in NTS2 binding affinity” value (hNTS2 [3]; compared to NT(8-13))?
**A.** The value was over 110 fold.

**Q.** What about the Ki (hNTS2 [3]; mean ± SEM, at least three experiments, Cheng-Prusoff from IC50, read-out: Binding, Ki hNTS2) of the same compound?
**A.** The Ki was 310 ± 100 nM.

**Q.** And the NTS1/NTS2 selectivity (hNTS2 [3])?
**A.** The NTS1/NTS2 selectivity was 25.
